Patent US20070099915A1, “INHIBITORS OF THE HIV INTEGRASE ENZYME” (PFIZER INC., priority 2005, published 2007)
Read-outs that look alike come from different tables or passages of the source.

Legend:
HIV-1 = HIV-1 infected patients; S. Little et al., CROI 2005, Abstract 161; cited from earlier work
[1] = target: T1, Full-length wild type HIV-1 integrase (SF1) (Human immunodeficiency virus type 1 group M subtype B, UniProt P04585); assay: Integrase strand-transfer scintillation proximity assay; format: biochemical
T1 construct: made in house; host or cells: E. coli BL21 (DE3)

[2] = system: HIV-1 RF virus in CEM-SS cells; assay: HIV-1 cell protection assay (XTT dye reduction); format: cell-based
Summary of the method: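 Infected CEM-SS cultures incubated six days, then XTT with phenazine methosulfate added for 4 h; viability read as formazan absorbance at 450 nm. Formazan expressed as percent of uninfected, compound-free cells; CC50 from uninfected treated cells, therapeutic index as CC50/EC50.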

[3] = strand-transfer SPA, 246 nM integrase, 50 nM host DNA, 37° C., 50 min, read-out: IC50
[4] = Human immunodeficiency virus 1, 144 h, RF strain of HIV-1, CEM-SS cells, XTT read-out after six days, read-out: EC50

| Compound | clinical efficacy in the treatment of HIV-infected patients (HIV-1) | IC50 [1, 3] | EC50 [2, 4] | EC50 ([2]; Human immunodeficiency virus 1, CEM-SS, 144 h) | IC50 [1] |
| --- | --- | --- | --- | --- | --- |
| O=C(NCc1ccc(F)cc1)c1nc(N2CCCCS2(=O)=O)c2cccnc2c1O [Example L-000870810] | showed clinical efficacy | – | – | – | – |
| O=C1c2ncc3c(c(Br)cn3Cc3ccc(F)cc3)c2CCN1O [Example 61, 1-bromo-3-(4-fluorobenzyl)-7-hydroxy-3,7,8,9-tetrahydro-6H-pyrrolo[2,3-c]-1,7-naphthyridin-6-one] | – | 17 nM | 0.32 nM | – | – |
| CC(=O)c1cn(Cc2ccc(F)cc2)c2cnc3c(c12)CCN(O)C3=O [Example 68, 1-acetyl-3-(4-fluorobenzyl)-7-hydroxy-3,7,8,9-tetrahydro-6H-pyrrolo[2,3-c]-1,7-naphthyridin-6-one-methane (1:1)] | – | 12 nM | – | 3 nM | – |
| CN1CCN(CCc2cn(Cc3ccc(F)cc3)c3cnc4c(c23)CCN(O)C4=O)CC1=O [Example 119, 3-(4-fluorobenzyl)-7-hydroxy-1-[2-(4-methyl-3-oxopiperazin-1-yl)ethyl]-3,7,8,9-tetrahydro-6H-pyrrolo[2,3-c]-1,7-naphthyridin-6-one] | – | 12 nM | 70 nM | – | – |
| CCCCOCCOCc1cn(Cc2ccc(F)cc2)c2cnc3c(=O)n(O)ccc3c12 [Example 82, 1-[(2-butoxyethoxy)methyl]-3-(4-fluorobenzyl)-7-hydroxy-3,7-dihydro-6H-pyrrolo[2,3-c]-1,7-naphthyridin-6-one] | – | 10 nM | 0.37 nM | – | – |
| O=C1c2ncc3c(c(CCNCCC(F)(F)F)cn3Cc3ccc(F)cc3)c2CCN1O [Example 117, 3-(4-fluorobenzyl)-7-hydroxy-1-{2-[(3,3,3-trifluoropropyl)amino]ethyl}-3,7,8,9-tetrahydro-6H-pyrrolo[2,3-c]-1,7-naphthyridin-6-one] | – | 17 nM | 6 nM | – | – |
| O=C1c2ncc3c(ccn3Cc3ccc(F)cc3)c2C=CCN1O [Example 10, 3-(4-fluorobenzyl)-7-hydroxy-7,8-dihydropyrrolo[3′,2′:4,5]pyrido[2,3-c]azepin-6(3H)-one] | – | – | 0.59 nM | – | 17 nM |
| CCCN(CCO)Cc1cn(Cc2ccc(F)cc2)c2cnc3c(=O)n(O)c(C)cc3c12 [Example 97, 3-(4-fluorobenzyl)-7-hydroxy-1-{[(2-hydroxyethyl)(propyl)amino]methyl}-8-methyl-3,7-dihydro-6H-pyrrolo[2,3-c]-1,7-naphthyridin-6-one] | – | 17 nM | 0.69 nM | – | – |
| COCCOCc1cn(Cc2ccc(F)cc2)c2cnc3c(c12)CCN(O)C3=O [Example 22, 3-(4-fluorobenzyl)-7-hydroxy-1-[(2-methoxyethoxy)methyl]-3,7,8,9-tetrahydro-6H-pyrrolo[2,3-c]-1,7-naphthyridin-6-one] | – | 14 nM | 1.5 nM | – | – |
| O=c1c2ncc3c(c(COCCOCc4ccccc4)cn3Cc3ccc(F)cc3)c2ccn1O [Example 92, 1-{[2-(benzyloxy)ethoxy]methyl}-3-(4-fluorobenzyl)-7-hydroxy-3,7-dihydro-6H-pyrrolo[2,3-c]-1,7-naphthyridin-6-one] | – | 3 nM | 10 nM | – | – |
| C[C@H](CO)NCc1cn(Cc2ccc(F)cc2)c2cnc3c(c12)CCN(O)C3=O [Example 33, 3-(4-fluorobenzyl)-7-hydroxy-1-({[(1R)-2-hydroxy-1-methylethyl]amino}methyl)-3,7,8,9-tetrahydro-6H-pyrrolo[2,3-c]-1,7-naphthyridin-6-one] | – | 21 nM | 13 nM | – | – |
| CN(CCc1cn(Cc2ccc(F)cc2)c2cnc3c(c12)CCN(O)C3=O)CC(F)(F)F [Example 113, 3-(4-fluorobenzyl)-7-hydroxy-1-{2-[methyl(2,2,2-trifluoroethyl)amino]ethyl}-3,7,8,9-tetrahydro-6H-pyrrolo[2,3-c]-1,7-naphthyridin-6-one] | – | 15 nM | 2 nM | – | – |
| O=C1c2ncc3c(c(CCCO)cn3Cc3ccc(F)cc3)c2CCN1O [Example 120, 3-(4-fluorobenzyl)-7-hydroxy-1-(3-hydroxypropyl)-3,7,8,9-tetrahydro-6H-pyrrolo[2,3-c]-1,7-naphthyridin-6-one] | – | 13 nM | 9 nM | – | – |
| CC(C)COCCOCc1cn(Cc2ccc(F)cc2)c2cnc3c(c12)CCN(O)C3=O [Example 58, 3-(4-fluorobenzyl)-7-hydroxy-1-[(2-isobutoxyethoxy)methyl]-3,7,8,9-tetrahydro-6H-pyrrolo[2,3-c]-1,7-naphthyridin-6-one] | – | 16 nM | 0.52 nM | – | – |
| N#Cc1ccc(Cn2ccc3c4c(ncc32)C(=O)N(O)CC4)cc1 [Example 86, 4-[(7-hydroxy-6-oxo-6,7,8,9-tetrahydro-3H-pyrrolo[2,3-c]-1,7-naphthyridin-3-yl)methyl]benzonitrile] | – | 108 nM | 27 nM | – | – |
